In patent US3956274A, “New compound 6'-deoxy-'-substituted or unsubstituted amino-lividomycins and the production thereof” (Zaidan Hojin Biseibutsu Kagaku Kenkyu Kai, priority 1973, dated 1976):
Converted amounts (≈) assume the structure as drawn.

What was measured:
Assay in all cases: MIC, standard serial dilution method
Type in all cases: cell-based
[1] = test system: Bacillus subtilis NRRL B-558; conditions: B. subtilis NRRL B-558; nutrient agar, 37°C, 18 hours
Protocol: (§1) The minimum inhibitory concentrations (mcg/ml) of 6'-amino-6'-deoxylividomycin B, 6'-deoxy-6'-methylaminolividomycin B and 6'-deoxy-6'-(2-hydroxyethylamino) lividomycin B against various microorganisms were determined according to a standard serial dilution method using nutrient agar incubation medium at 37°C, the estimation being effected after 18 hours incubation except for Mycobacterium smegmalis ATCC 607, in which the estimation being effected after 48 hours incubation. The minimum inhibitory concentrations (mcg/ml) of neomycin and lividomycin B were also determined in the same manner they also for comparison.

[2] = test system: Escherichia coli K-12 J 5 R 11-2; conditions: E. coli K-12 J 5 R 11-2; nutrient agar, 37°C, 18 hours
Protocol: as §1

[3] = test system: Escherichia coli K-12 LA 290 R 56; conditions: E. coli K-12 LA 290 R 56; nutrient agar, 37°C, 18 hours
Protocol: as §1

[4] = test system: Escherichia coli K-12 LA 290 R 64; conditions: E. coli K-12 LA 290 R 64; nutrient agar, 37°C, 18 hours
Protocol: as §1

[5] = test system: Escherichia coli K-12 ML 1410 R 81; conditions: E. coli K-12 ML 1410 R 81; nutrient agar, 37°C, 18 hours
Protocol: as §1

[6] = test system: Escherichia coli K-12 ML 1410; conditions: E. coli K-12 ML 1410; nutrient agar, 37°C, 18 hours
Protocol: as §1

[7] = test system: Escherichia coli K-12 ML 1630; conditions: E. coli K-12 ML 1630; nutrient agar, 37°C, 18 hours
Protocol: as §1

[8] = test system: Escherichia coli K-12 R-5; conditions: E. coli K-12 R-5; nutrient agar, 37°C, 18 hours
Protocol: as §1

[9] = test system: Escherichia coli K-12 W 677; conditions: E. coli K-12 W 677; nutrient agar, 37°C, 18 hours
Protocol: as §1

[10] = test system: Escherichia coli K-12; conditions: E. coli K-12; nutrient agar, 37°C, 18 hours
Protocol: as §1

[11] = test system: Escherichia coli NIHJ; conditions: E. coli NIHJ; nutrient agar, 37°C, 18 hours
Protocol: as §1

[12] = test system: Klebsiella pneumoniae PCI 602; conditions: K. pneumoniae PCI 602; nutrient agar, 37°C, 18 hours
Protocol: as §1

[13] = test system: Klebsiella pneumoniae type 22 No. 3038; conditions: K. pneumoniae type 22 No. 3038; nutrient agar, 37°C, 18 hours
Protocol: as §1

[14] = test system: Mycobacterium smegmatis ATCC 607; conditions: nutrient agar, 37°C, 48 hours
Protocol: as §1

[15] = test system: Proteus rettgeri GN 311; conditions: nutrient agar, 37°C, 18 hours
Protocol: as §1

[16] = test system: Proteus rettgeri GN 466; conditions: Proteus rettgeri GN 466; nutrient agar, 37°C, 18 hours
Protocol: as §1

[17] = test system: Pseudomonas aeruginosa 99; conditions: P. aeruginosa 99; nutrient agar, 37°C, 18 hours
Protocol: as §1

[18] = test system: Pseudomonas aeruginosa A 3; conditions: P. aeruginosa A 3; nutrient agar, 37°C, 18 hours
Protocol: as §1

[19] = test system: Pseudomonas aeruginosa No.12; conditions: P. aeruginosa No.12; nutrient agar, 37°C, 18 hours
Protocol: as §1

[20] = test system: Pseudomonas aeruginosa TI-13-1; conditions: P. aeruginosa TI-13-1; nutrient agar, 37°C, 18 hours
Protocol: as §1

[21] = test system: Salmonella typhosa T-63; conditions: Salmonella typhosa T-63; nutrient agar, 37°C, 18 hours
Protocol: as §1

[22] = test system: Sarcina lutea PCI 1001; conditions: nutrient agar, 37°C, 18 hours
Protocol: as §1

[23] = test system: Staphylococcus aureus FDA 209 P; conditions: S. aureus FDA 209 P; nutrient agar, 37°C, 18 hours
Protocol: as §1

[24] = test system: Escherichia coli K-12 JR 66/W 677; conditions: E. coli K-12 JR 66/W 677, drug-resistant strain of patient-origin; nutrient agar, 37°C, 18 hours
Protocol: as §1
(§2) In the above table, the mark * denotes the strain is a drug-resistant
(§3) strain of patient-origin.

[25] = test system: Escherichia coli K-12 LA 290 R 55; conditions: E. coli K-12 LA 290 R 55, drug-resistant strain of patient-origin; nutrient agar, 37°C, 18 hours
Protocol: as §1, §2, §3

[26] = test system: Escherichia coli K-12 ML 1629; conditions: E. coli K-12 ML 1629, drug-resistant strain of patient-origin; nutrient agar, 37°C, 18 hours
Protocol: as §1, §2, §3

[27] = test system: Pseudomonas aeruginosa GN 315; conditions: P. aeruginosa GN 315, drug-resistant strain of patient-origin; nutrient agar, 37°C, 18 hours
Protocol: as §1, §2, §3

With `NC[C@@H]1O[C@H](O[C@H]2[C@@H](O)[C@H](O[C@@H]3[C@@H](O)[C@H](N)C[C@H](N)[C@H]3O[C@H]3O[C@H](CN)[C@@H](O)[C@H](O)[C@H]3N)O[C@@H]2CO)[C@H](N)[C@@H](O)[C@@H]1O` [NM, neomycin, reference compound] the Minimal inhibitory concentration [1] was < 0.20 µg/mL, the Minimal inhibitory concentration [2] was 50 µg/mL (≈ 81.3 µM) and the Minimal inhibitory concentration [3] was 0.78 µg/mL (≈ 1.27 µM). The Minimal inhibitory concentration [4] was 0.39 µg/mL (≈ 0.635 µM), the Minimal inhibitory concentration [5] was > 100 µg/mL and the Minimal inhibitory concentration [6] was 6.25 µg/mL (≈ 10.2 µM). For the same compound, the Minimal inhibitory concentration [7] was > 100 µg/mL, the Minimal inhibitory concentration [8] was 0.78 µg/mL (≈ 1.27 µM) and the Minimal inhibitory concentration [9] was 0.78 µg/mL (≈ 1.27 µM). For the same compound, the Minimal inhibitory concentration [10] was 1.56 µg/mL (≈ 2.54 µM), the Minimal inhibitory concentration [11] was 1.56 µg/mL (≈ 2.54 µM) and the Minimal inhibitory concentration [12] was 0.78 µg/mL (≈ 1.27 µM). For the same compound, the Minimal inhibitory concentration [13] was > 100 µg/mL, the Minimal inhibitory concentration [14] was < 0.20 µg/mL and the Minimal inhibitory concentration [15] was 50 µg/mL (≈ 81.3 µM). It also gave a Minimal inhibitory concentration [16] of 3.12 µg/mL (≈ 5.08 µM), a Minimal inhibitory concentration [17] of 50 µg/mL (≈ 81.3 µM) and a Minimal inhibitory concentration [18] of 25 µg/mL (≈ 40.7 µM). For the same compound, the Minimal inhibitory concentration [19] was 3.12 µg/mL (≈ 5.08 µM), the Minimal inhibitory concentration [20] was > 100 µg/mL and the Minimal inhibitory concentration [21] was 0.78 µg/mL (≈ 1.27 µM). For the same compound, the Minimal inhibitory concentration [22] was 0.78 µg/mL (≈ 1.27 µM), the Minimal inhibitory concentration [23] was 0.39 µg/mL (≈ 0.635 µM) and the Minimal inhibitory concentration [24] was > 100 µg/mL. It also gave a Minimal inhibitory concentration [25] of 0.78 µg/mL (≈ 1.27 µM), a Minimal inhibitory concentration [26] of 100 µg/mL (≈ 163 µM) and a Minimal inhibitory concentration [27] of 100 µg/mL (≈ 163 µM).
